Measured values as given in patent publication US11773352B2, “Hydrochlorofluoroolefins and methods of using same” (3M INNOVATIVE PROPERTIES COMPANY, priority 2018, dated 2023).

Assays:
[1] = Atmospheric lifetime from rate of reaction with hydroxyl radicals; format: physicochemical; settings: gas phase, relative to reference compounds such as chloromethane and ethane, FTIR
Description: Atmospheric lifetime: The atmospheric lifetime of Example 1 was determined from the rate of reaction with hydroxyl radicals. The pseudo-first order rate for the reaction of the gaseous hydrobromofluoroolefin with hydroxyl radical was measured in a series of experiments relative to reference compounds such as chloromethane and ethane. The measurements were performed in a 5.7 L, heated FTIR gas cell equipped with a polished semiconductor-grade quartz window. An Oriel Instruments UV Lamp, Model 66921 equipped with a 480 W mercury-xenon bulb was used to generate hydroxyl radicals by photolyzing ozone in the presence of water vapor. The concentrations of the hydrobromofluoroolefin and the reference compound were measured as a function of reaction time using an I-Series FTIR from Midac Corporation, Westfield, Mass., US. The atmospheric lifetime was calculated from the reaction rates for the hydrobromofluoroolefin relative to the reference compounds and the reported lifetime of the reference compounds as shown below:
[formula] where τx is the atmospheric lifetime of hydrobromofluoroolefin, τr is the atmospheric lifetime of the reference compound, and kx and kr are the rate constants for the reaction of hydroxyl radical with hydrobromofluoroolefin and the reference compound, respectively. Sample Preparation

[2] = Largest Soluble Hydrocarbon (LSH) test; format: physicochemical; settings: compound:hydrocarbon about 1:1 to 1:2 by weight
Description: Largest Soluble Hydrocarbon (LSH): The LSH of each hydrofluoroolefin compound was determined by mixing the compound with hydrocarbons of varying molecular weight (CnH2n+2, where n=9 to 24) in a hydrofluoroolefin:hydrocarbon ratio of about 1:1 to 1:2 by weight at room temperature (25° C.) and at 50° C. […] A larger value of n is interpreted herein to indicate a greater ability of the hydrofluoroolefin to clean hydrocarbons.
The results presented in Table 2 indicate that the hydrofluoroolefins of the present invention are highly suitable fluids for cleaning applications.

[3] = 25° C., longest hydrocarbon compatible without haze
[4] = 50° C., largest hydrocarbon used C-23

COC(=C(Cl)C(F)(F)F)C(F)(F)F [Example 1, 2-Chloro-1,1,1,4,4,4-hexafluoro-3-methoxybut-2-ene]
atmospheric lifetime [1]: 0.04 years
LSH (n in CnH2n+2) [2, 3]: 19
LSH (n in CnH2n+2) [2, 4]: >23

COC1=C(Cl)C(F)(F)C(F)(F)C1(F)F [Example 4, 1-Chloro-3,3,4,4,5,5-hexafluoro-2-methoxycyclopent-1-ene]
LSH (n in CnH2n+2) [2, 3]: 19
LSH (n in CnH2n+2) [2, 4]: >23
